Measurements as given in patent publication US8450266B2 (Ipsen Pharma S.A.S., priority 2008, dated 2013).
Where a SMILES comes first, the peptide text is derived from it. [ ]: non-standard residue; d: D form. The star is where a group is joined. X2 = CCCCCCN1C(=O)CC(*)C1=O; Decanoyl = CCCCCCCCCC(=O)*; Ac6c = NC1(C(=O)O)CCCCC1; Orn = NCCC[C@H](N)C(=O)O; X1 = CCCN1C(=O)CC(*)C1=O

Key:
[1] = Human plasma half-life assay (LC-MS); type: in vitro ADME; settings: incubated at 37° C., read-out: Human Plasma T½ (converted)
Procedure: (§1) B. Human and Rat Plasma Half-Life Assay
(§2) 50 μl, was removed at various times, like at 0, 1, 2, 3, 4, 8, 24, 32, 48, 56, 72 hours, mixed with 5 μL formic acid and 150 μL acetonitrile in a microcentrifuge tube, vertexed, and centrifuged for 10 minutes at 10K rpm. The supernatant was transferred to an injection vial and analyzed by LC-MS. The LC-MS system consisted of an API4000 mass spectrometer with an ESI probe. Positive ion mode and full scan detection were used. HPLC separation was carried out on a Luna 3μ C8 (2), 2×30 mm column with a gradient from 90% A to 90% B in 10 minutes at a flow rate of 0.3 ml/min. Buffer A was 1% formic acid in water and buffer B was 1% formic acid acetonitrile.

[2] = Rat plasma half-life assay (LC-MS); type: in vitro ADME; settings: incubated at 37° C., read-out: Rat Plasma T½ (converted)
Procedure: as §1, §2

Row | Compound | half-life at 0.1 mg/mL [1] [h] | half-life at 0.1 mg/mL [2] [h] | half-life at 0.1 mg/ml [1] [h] | half-life at 0.1 mg/ml [2] [h]
1 | CCCN1C(=O)CC(SC[C@H](NC(=O)[C@H](CCCCN)NC(=O)[C@H](CCC(N)=O)NC(=O)[C@H](C)NC(=O)[C@H](CC(C)C)NC(=O)[C@H](CC(C)C)NC(=O)[C@H](Cc2c[nH]c3ccccc23)NC(=O)[C@H](CC(N)=O)NC(=O)[C@@H](NC(=O)[C@H](Cc2ccccc2)NC(=O)[C@H](CC(=O)O)NC(=O)[C@H](CCC(N)=O)NC(=O)[C@H](CCC(N)=O)NC(=O)[C@H](Cc2c[nH]cn2)NC(=O)[C@@H](NC(=O)[C@H](CCCCN)NC(=O)[C@H](CC(=O)O)NC(=O)[C@H](CCSC)NC(=O)[C@H](C)NC(=O)[C@@H](NC(=O)[C@H](CO)NC(=O)[C@H](Cc2ccc(O)cc2)NC(=O)[C@H](CC(=O)O)NC(=O)[C@H](CO)NC(=O)C2(NC(=O)[C@@H](N)Cc3ccccc3)CCCCC2)[C@@H](C)CC)[C@@H](C)CC)C(C)C)C(N)=O)C1=O (some centres unmarked) [Example 34, [A6c^7, Cys(Psu)^31]hGIP(6-31)-NH2] | 11.3 | 7.4 | – | –
2 | CCCCCCCCCC(=O)NCCC[C@H](NC(=O)[C@H](CCCCN)NC(=O)[C@H](CCC(N)=O)NC(=O)[C@H](C)NC(=O)[C@H](CC(C)C)NC(=O)[C@H](CC(C)C)NC(=O)[C@H](Cc1c[nH]c2ccccc12)NC(=O)[C@H](CC(N)=O)NC(=O)[C@@H](NC(=O)[C@H](Cc1ccccc1)NC(=O)[C@H](CC(=O)O)NC(=O)[C@H](CCC(N)=O)NC(=O)[C@H](CCC(N)=O)NC(=O)[C@H](Cc1c[nH]cn1)NC(=O)[C@@H](NC(=O)[C@H](CCCCN)NC(=O)[C@H](CC(=O)O)NC(=O)[C@H](CCSC)NC(=O)[C@H](C)NC(=O)[C@@H](NC(=O)[C@H](CO)NC(=O)[C@H](Cc1ccc(O)cc1)NC(=O)[C@H](CC(=O)O)NC(=O)[C@H](CO)NC(=O)C1(NC(=O)CCCCCCCCC)CCCCC1)[C@@H](C)CC)[C@@H](C)CC)C(C)C)C(=O)N[C@@H](CCCCN)C(=O)N[C@@H](CCCCN)C(=O)N[C@@H](CC(N)=O)C(=O)N[C@@H](CC(=O)O)C(=O)N[C@@H](Cc1c[nH]c2ccccc12)C(=O)N[C@@H](CCCCN)C(=O)N[C@@H](Cc1c[nH]cn1)C(=O)N[C@@H](CC(N)=O)C(=O)N[C@H](C(=O)N[C@H](C(=O)N[C@@H](CCC(N)=O)C(=O)O)[C@@H](C)O)[C@@H](C)CC [Example 15, [CH3-(CH2)8-C(O)-A6c^7, Orn^31(N-C(O)-(CH2)8-CH3)]hGIP(7-42)-OH] (Decanoyl-[Ac6c]SDYSIAMDKIHQQDFVNWLLAQK[Orn](Decanoyl)KKNDWKHNITQ-OH) | – | – | 5.2 | > 72
3 | CCCN1C(=O)CC(SC[C@H](NC(=O)[C@H](Cc2c[nH]cn2)NC(=O)[C@H](CCCCN)NC(=O)[C@H](Cc2c[nH]c3ccccc23)NC(=O)[C@H](CC(=O)O)NC(=O)[C@H](CC(N)=O)NC(=O)[C@H](CCCCN)NC(=O)[C@H](CCCCN)NC(=O)CNC(=O)[C@H](CCCCN)NC(=O)[C@H](CCC(N)=O)NC(=O)[C@H](C)NC(=O)[C@H](CC(C)C)NC(=O)[C@H](CC(C)C)NC(=O)[C@H](Cc2c[nH]c3ccccc23)NC(=O)[C@H](CC(N)=O)NC(=O)[C@@H](NC(=O)[C@H](Cc2ccccc2)NC(=O)[C@H](CC(=O)O)NC(=O)[C@H](CCC(N)=O)NC(=O)[C@H](CCC(N)=O)NC(=O)[C@H](Cc2c[nH]cn2)NC(=O)[C@@H](NC(=O)[C@H](CCCCN)NC(=O)[C@H](CC(=O)O)NC(=O)[C@H](CCSC)NC(=O)[C@H](C)NC(=O)[C@@H](NC(=O)[C@H](CO)NC(=O)[C@H](Cc2ccc(O)cc2)NC(=O)[C@H](CC(=O)O)NC(=O)[C@H](CO)NC(=O)C2(NC(C)=O)CCCCC2)[C@@H](C)CC)[C@@H](C)CC)C(C)C)C(=O)N[C@H](C(=O)N[C@H](C(=O)N[C@@H](CCC(N)=O)C(=O)O)[C@@H](C)O)[C@@H](C)CC)C1=O (some centres unmarked) [Example 3, [Ac-A6c^7, Cys(Psu)^39]hGIP(7-42)-OH] (Ac-[Ac6c]SDYSIAMDKIHQQDFVNWLLAQKGKKNDWKHC(X1)ITQ-OH) | 16.4 | 5.6 | – | –
4 | CCCN1C(=O)CC(SC[C@H](NC(=O)[C@H](CC(=O)O)NC(=O)[C@H](CC(N)=O)NC(=O)[C@H](CCCCN)NC(=O)[C@H](CCCCN)NC(=O)CNC(=O)[C@H](CCCCN)NC(=O)[C@H](CCC(N)=O)NC(=O)[C@H](C)NC(=O)[C@H](CC(C)C)NC(=O)[C@H](CC(C)C)NC(=O)[C@H](Cc2c[nH]c3ccccc23)NC(=O)[C@H](CC(N)=O)NC(=O)[C@@H](NC(=O)[C@H](Cc2ccccc2)NC(=O)[C@H](CC(=O)O)NC(=O)[C@H](CCC(N)=O)NC(=O)[C@H](CCC(N)=O)NC(=O)[C@H](Cc2c[nH]cn2)NC(=O)[C@@H](NC(=O)[C@H](CCCCN)NC(=O)[C@H](CC(=O)O)NC(=O)[C@H](CCSC)NC(=O)[C@H](C)NC(=O)[C@@H](NC(=O)[C@H](CO)NC(=O)[C@H](Cc2ccc(O)cc2)NC(=O)[C@H](CC(=O)O)NC(=O)[C@H](CO)NC(=O)C2(NC(C)=O)CCCCC2)[C@@H](C)CC)[C@@H](C)CC)C(C)C)C(=O)N[C@@H](CCCCN)C(=O)N[C@@H](Cc2c[nH]cn2)C(=O)N[C@@H](CC(N)=O)C(=O)N[C@H](C(=O)N[C@H](C(=O)N[C@@H](CCC(N)=O)C(=O)O)[C@@H](C)O)[C@@H](C)CC)C1=O (some centres unmarked) [Example 5, [Ac-A6c^7, Cys(Psu)^36]hGIP(7-42)-OH] (Ac-[Ac6c]SDYSIAMDKIHQQDFVNWLLAQKGKKNDC(X1)KHNITQ-OH) | 7.8 | 8.5 | – | –
5 | CCCC[C@H](NC(=O)[C@H](C)NC(=O)[C@@H](NC(=O)C(C)(C)NC(=O)[C@H](Cc1ccc(O)cc1)NC(=O)[C@H](CC(=O)O)NC(=O)[C@H](CO)NC(=O)[C@@H](NC(=O)[C@@H](N)Cc1ccccc1)[C@@H](C)CC)[C@@H](C)CC)C(=O)N[C@@H](CC(=O)O)C(=O)N[C@@H](CCCCN)C(=O)N[C@H](C(=O)N[C@@H](Cc1c[nH]cn1)C(=O)N[C@@H](CCC(N)=O)C(=O)N[C@@H](CCC(N)=O)C(=O)N[C@@H](CC(=O)O)C(=O)N[C@@H](Cc1ccccc1)C(=O)N[C@H](C(=O)N[C@@H](CC(N)=O)C(=O)N[C@@H](Cc1c[nH]c2ccccc12)C(=O)N[C@@H](CC(C)C)C(=O)N[C@@H](CC(C)C)C(=O)N[C@@H](C)C(=O)N[C@@H](CCC(N)=O)C(=O)N[C@@H](CCCCN)C(N)=O)C(C)C)[C@@H](C)CC [Example 37, (Aib^11, Nle^14)hGIP(6-30)-NH2] (HELM PEPTIDE1{F.I.S.D.Y.[Aib].I.A.[Nle].D.K.I.H.Q.Q.D.F.V.N.W.L.L.A.Q.K.[am]}$$$$V2.0) | 13.5 | 28.5 | – | –
6 | CCCN1C(=O)CC(SC[C@H](NC(=O)[C@H](CCCCN)NC(=O)[C@H](CCCCN)NC(=O)CNC(=O)[C@H](CCCCN)NC(=O)[C@H](CCC(N)=O)NC(=O)[C@H](C)NC(=O)[C@H](CC(C)C)NC(=O)[C@H](CC(C)C)NC(=O)[C@H](Cc2c[nH]c3ccccc23)NC(=O)[C@H](CC(N)=O)NC(=O)[C@@H](NC(=O)[C@H](Cc2ccccc2)NC(=O)[C@H](CC(=O)O)NC(=O)[C@H](CCC(N)=O)NC(=O)[C@H](CCC(N)=O)NC(=O)[C@H](Cc2c[nH]cn2)NC(=O)[C@@H](NC(=O)[C@H](CCCCN)NC(=O)[C@H](CC(=O)O)NC(=O)[C@H](CCSC)NC(=O)[C@H](C)NC(=O)[C@@H](NC(=O)[C@H](CO)NC(=O)[C@H](Cc2ccc(O)cc2)NC(=O)[C@H](CC(=O)O)NC(=O)[C@H](CO)NC(=O)C2(NC(C)=O)CCCCC2)[C@@H](C)CC)[C@@H](C)CC)C(C)C)C(=O)N[C@@H](CC(=O)O)C(=O)N[C@@H](Cc2c[nH]c3ccccc23)C(=O)N[C@@H](CCCCN)C(=O)N[C@@H](Cc2c[nH]cn2)C(=O)N[C@@H](CC(N)=O)C(=O)N[C@H](C(=O)N[C@H](C(=O)N[C@@H](CCC(N)=O)C(=O)O)[C@@H](C)O)[C@@H](C)CC)C1=O (some centres unmarked) [Example 7, [Ac-A6c^7, Cys(Psu)^34]hGIP(7-42)-OH] (Ac-[Ac6c]SDYSIAMDKIHQQDFVNWLLAQKGKKC(X1)DWKHNITQ-OH) | 7.9 | 1.6 | – | –
7 | CCCCCCN1C(=O)CC(SC[C@H](NC(=O)[C@H](CCCCN)NC(=O)[C@H](CCC(N)=O)NC(=O)[C@H](C)NC(=O)[C@H](CC(C)C)NC(=O)[C@H](CC(C)C)NC(=O)[C@H](Cc2c[nH]c3ccccc23)NC(=O)[C@H](CC(N)=O)NC(=O)[C@@H](NC(=O)[C@H](Cc2ccccc2)NC(=O)[C@H](CC(=O)O)NC(=O)[C@H](CCC(N)=O)NC(=O)[C@H](CCC(N)=O)NC(=O)[C@H](Cc2c[nH]cn2)NC(=O)[C@@H](NC(=O)[C@H](CCCCN)NC(=O)[C@H](CC(=O)O)NC(=O)[C@H](CCSC)NC(=O)[C@H](C)NC(=O)[C@@H](NC(=O)[C@H](CO)NC(=O)[C@H](Cc2ccc(O)cc2)NC(=O)[C@H](CC(=O)O)NC(=O)[C@H](CO)NC(=O)C2(NC(C)=O)CCCCC2)[C@@H](C)CC)[C@@H](C)CC)C(C)C)C(=O)N[C@@H](CCCCN)C(=O)N[C@@H](CCCCN)C(=O)N[C@@H](CC(N)=O)C(=O)N[C@@H](CC(=O)O)C(=O)N[C@@H](Cc2c[nH]c3ccccc23)C(=O)N[C@@H](CCCCN)C(=O)N[C@@H](Cc2c[nH]cn2)C(=O)N[C@@H](CC(N)=O)C(=O)N[C@H](C(=O)N[C@H](C(=O)N[C@@H](CCC(N)=O)C(=O)O)[C@@H](C)O)[C@@H](C)CC)C1=O (some centres unmarked) [Example 22, [Ac-A6c^7, Cys(Hsu)^31]hGIP(7-42)-OH] (Ac-[Ac6c]SDYSIAMDKIHQQDFVNWLLAQKC(X2)KKNDWKHNITQ-OH) | – | – | 7.7 | 5
